Results from EP0308020A2, “5-(aryl and heteroaryl)-6-(aryl and heteroaryl)-1,2-dihydro-2-oxo 3-pyridinecarboxylic acids and derivatives thereof” (Merck & Co., Inc., priority 1987, dated 1989).
Converted amounts (≈) assume the structure as drawn. Where two headings read alike, the source gives them in different places.

Columns and labels:
Experiment in all cases: Agar diffusion assay for antibacterial activity (MIC)
Format in all cases: cell-based
[1] = system: Escherichia coli MB 5158 (Norfloxacin-resistant strain); details: 20 h, read-out: Minimum inhibitory conc.
Method: (§1) A stock solution of each test compound was prepared at a concentration of 1.28 mg/ml using sterile distilled water. After initial solubilization, two-fold dilutions were prepared and added as one-ml portions to 15 x 100 mm petri plates. A nine-ml portion of trypticase soy agar (TSA) was melted and added to each plate. The test compound and agar were mixed and allowed to cool. […] Controls were prepared using norfloxacin, coumermycin A-1, or novobiocin, and solvent.
(§2) Each plate was inoculated using a multipoint inoculator with 10⁵ colony-forming units (cfu) of the appropriate bacterium. Each bacterium was stored at -70°C before use and cultured in trypticase soy broth (TSB) at 35°C for 18 hours. The cultures, containing ca. 10⁹ cfu/ml, were diluted as necessary with TSB to provide concentrations of 10⁵ cfu/inoculation spot. The test plates were then incubated at 35°C for 20 hours. Minimum inhibitory concentrations (MIC) for each compound was the lowest concentration that allowed no growth, a barely visible haze, of five or fewer discrete colonies.
(§3) Table VI includes biological test results for representative compounds of this invention using the agar diffusion assay described above. The particular bacterial strains used are representative of organisms for which the compounds are useful as antibacterial agents.

[2] = system: Pseudomonas aeruginosa MB 5160 (Norfloxacin-resistant strain); details: 20 h, read-out: Minimum inhibitory conc.
Method: as §1, §2, §3

[3] = system: Escherichia coli MB 5157; details: read-out: Minimum inhibitory conc.
Method: as §1, §2, §3

[4] = system: Proteus mirabilis MB 2830; details: read-out: Minimum inhibitory conc.
Method: as §1, §2, §3

[5] = system: Klebsiella pneumoniae MB 4005; details: read-out: Minimum inhibitory conc.
Method: as §1, §2, §3

[6] = system: Staphylococcus aureus MB 4310; details: read-out: Minimum inhibitory conc.
Method: as §1, §2, §3

[7] = system: Streptococcus faecalis MB 2864; details: Enterococcus faecalis, read-out: Minimum inhibitory conc.
Method: as §1, §2, §3

[8] = system: Pseudomonas aeruginosa MB 2835; details: MB2835, Ps. aer., strain MB 2835, trypticase soy agar, 10⁵ cfu, 35°C, 20 hours, read-out: Minimum inhibitory conc.
Method: as §1, §2, §3

[9] = system: Staphylococcus aureus MB 2865; details: read-out: Minimum inhibitory conc.
Method: as §1, §2, §3

[10] = system: Escherichia coli MB 2891; details: read-out: Minimum inhibitory conc.
Method: as §1, §2, §3

[11] = MB5157, E. coli, strain MB 5157, trypticase soy agar, 10⁵ cfu, 35°C, 20 hours
[12] = MB2830, Pr. mir., strain MB 2830, trypticase soy agar, 10⁵ cfu, 35°C, 20 hours
[13] = MB4005, K. pneu., strain MB 4005, trypticase soy agar, 10⁵ cfu, 35°C, 20 hours
[14] = MB4310, St. aur., strain MB 4310, trypticase soy agar, 10⁵ cfu, 35°C, 20 hours
[15] = MB2864, Str. fae., strain MB 2864, trypticase soy agar, 10⁵ cfu, 35°C, 20 hours
[16] = MB2865, St. aur., strain MB 2865, trypticase soy agar, 10⁵ cfu, 35°C, 20 hours
[17] = MB2891, E. coli, strain MB 2891, trypticase soy agar, 10⁵ cfu, 35°C, 20 hours

| Structure (SMILES) | MIC [1] [µg/mL] | MIC [2] [µg/mL] | MIC [3, 11] [µg/mL] | MIC [4, 12] [µg/mL] | MIC [5, 13] [µg/mL] | MIC [6, 14] [µg/mL] | MIC [7, 15] [µg/mL] | MIC [8] [µg/mL] | MIC [9, 16] [µg/mL] | MIC [10, 17] [µg/mL] | MIC ([4]; MB2830, 20 h) [µg/mL] | MIC ([3]; MB5157, 20 h) [µg/mL] | MIC ([5]; MB4005, 20 h) [µg/mL] | MIC ([10]; MB2891, 20 h) [µg/mL] | MIC ([6]; MB4310, 20 h) [µg/mL] | MIC ([7]; MB2864, 20 h) [µg/mL] | MIC ([9]; MB2865, 20 h) [µg/mL] |
| --- | --- | --- | --- | --- | --- | --- | --- | --- | --- | --- | --- | --- | --- | --- | --- | --- | --- |
| CN(C)c1ccc(-c2[nH]c(=O)c(C(=O)O)cc2-c2ccc(O)cc2)cc1 [Example 30] | > 128 | > 128 | 0.25 (≈ 0.714 µM) | 8 (≈ 22.8 µM) | < 0.25 | 0.25 (≈ 0.714 µM) | 0.5 (≈ 1.43 µM) | > 128 | 0.25 (≈ 0.714 µM) | 0.25 (≈ 0.714 µM) |  |  |  |  |  |  |  |
| COc1ccc(-c2[nH]c(=O)c(C(=O)O)cc2-c2ccc(F)cc2)cc1 [Example 32, 5-(4-Fluorophenyl)-1,2-dihydro-6-(4-methoxyphenyl)-2-oxo-3-pyridinecarboxylic acid] | > 128 | > 128 | 4 (≈ 11.8 µM) | 32 (≈ 94.3 µM) | 1 (≈ 2.95 µM) | 1 (≈ 2.95 µM) | 16 (≈ 47.2 µM) | > 128 | 2 (≈ 5.89 µM) | 16 (≈ 47.2 µM) |  |  |  |  |  |  |  |
| CN(C)c1ccc(-c2[nH]c(=O)c(C(=O)O)cc2-c2ccc(F)cc2)cc1 [Example 33] | > 128 | > 128 | 8 (≈ 22.7 µM) | 128 (≈ 363 µM) | 8 (≈ 22.7 µM) | 2 (≈ 5.68 µM) | 128 (≈ 363 µM) | > 128 | 2 (≈ 5.68 µM) | 16 (≈ 45.4 µM) |  |  |  |  |  |  |  |
| CN(C)c1ccc(-c2[nH]c(=O)c(C(=O)O)cc2-c2ccc(O)cc2)cc1F [Example 34] | > 128 | > 128 | 16 (≈ 43.4 µM) |  | 16 (≈ 43.4 µM) | 8 (≈ 21.7 µM) | 16 (≈ 43.4 µM) | > 128 | 2 (≈ 5.43 µM) | 4 (≈ 10.9 µM) | > 128 |  |  |  |  |  |  |
| CN(C)c1ccc(-c2[nH]c(=O)c(C(=O)O)cc2-c2ccc(O)cc2)c(F)c1 [Example 35] | > 128 | > 128 | 1 (≈ 2.71 µM) | 32 (≈ 86.9 µM) | 1 (≈ 2.71 µM) | 1 (≈ 2.71 µM) | 4 (≈ 10.9 µM) | > 128 | 0.5 (≈ 1.36 µM) | 1 (≈ 2.71 µM) |  |  |  |  |  |  |  |
| CSc1ccc(-c2[nH]c(=O)c(C(=O)O)cc2-c2ccc(F)cc2)cc1 [Example 36, 5-(4-fluorophenyl)-1,2-dihydro-6-[4-(methylthio)phenyl]-2-oxo-3-pyridine carboxylic acid] | > 128 | > 128 | 16 (≈ 45 µM) |  | 16 (≈ 45 µM) | 8 (≈ 22.5 µM) | 64 (≈ 180 µM) | > 128 | 8 (≈ 22.5 µM) | 64 (≈ 180 µM) | > 128 |  |  |  |  |  |  |
| O=C(O)c1cc(-c2ccc(F)cc2)c(-c2ccc(N3CCCCC3)cc2)[nH]c1=O [Example 42] | > 128 | > 128 |  |  |  | 1 (≈ 2.55 µM) | 64 (≈ 163 µM) | > 128 | 1 (≈ 2.55 µM) |  | > 128 | > 128 | > 128 | > 128 |  |  |  |
| O=C(O)c1cc(-c2ccc(F)cc2)c(-c2ccc(N3CCOCC3)cc2)[nH]c1=O [Example 43] | > 128 | > 128 | 8 (≈ 20.3 µM) | 128 (≈ 325 µM) | 16 (≈ 40.6 µM) | 4 (≈ 10.1 µM) | 64 (≈ 162 µM) | > 128 | 4 (≈ 10.1 µM) | 16 (≈ 40.6 µM) |  |  |  |  |  |  |  |
| CN1CCN(c2ccc(-c3[nH]c(=O)c(C(=O)O)cc3-c3ccc(F)cc3)cc2)CC1 [Example 44] | > 128 | > 128 | 16 (≈ 39.3 µM) |  | 32 (≈ 78.5 µM) | 16 (≈ 39.3 µM) | 128 (≈ 314 µM) | > 128 | 32 (≈ 78.5 µM) | 8 (≈ 19.6 µM) | > 128 |  |  |  |  |  |  |
| CS(=O)(=O)c1ccc(-c2[nH]c(=O)c(C(=O)O)cc2-c2ccc(F)cc2)cc1 [Example 47, 5-(4-Fluorophenyl)-1,2-dihydro-6-[4-(methylsulfonyl)phenyl]-2-oxo-3-pyridinecarboxylic acid] | > 128 | > 128 |  |  |  |  |  | > 128 |  |  | > 128 | > 128 | > 128 | > 128 | > 128 | > 128 | > 128 |
| C[S+]([O-])c1ccc(-c2[nH]c(=O)c(C(=O)O)cc2-c2ccc(F)cc2)cc1 (stereo not drawn) [Example 48] | > 128 | > 128 |  |  |  |  |  | > 128 |  |  | > 128 | > 128 | > 128 | > 128 | > 128 | > 128 | > 128 |
| C[N+](C)([O-])c1ccc(-c2[nH]c(=O)c(C(=O)O)cc2-c2ccc(F)cc2)cc1 [Example 49] | > 128 | > 128 | 4 (≈ 10.9 µM) | 64 (≈ 174 µM) | 8 (≈ 21.7 µM) | 0.5 (≈ 1.36 µM) | 16 (≈ 43.4 µM) | > 128 | 1 (≈ 2.71 µM) | 32 (≈ 86.9 µM) |  |  |  |  |  |  |  |
| C[N+](C)([O-])c1ccc(-c2[nH]c(=O)c(C(=O)O)cc2-c2ccc(O)cc2)cc1 [Example 50] | > 128 | > 128 | 8 (≈ 21.8 µM) | 128 (≈ 349 µM) | 16 (≈ 43.7 µM) | 8 (≈ 21.8 µM) | 16 (≈ 43.7 µM) | > 128 | 4 (≈ 10.9 µM) | 8 (≈ 21.8 µM) |  |  |  |  |  |  |  |
| CN(C)c1ccc(-c2c(-c3ccc(O)cc3)cc(C(=O)O)c(=O)n2C)cc1 [Example 51, 6-[4-(Dimethylamino)phenyl]-1,2-dihydro-5-(4-hydroxyphenyl)-1-methyl-2-oxo-3-pyridinecarboxylic acid] | > 128 | > 128 | 2 (≈ 5.49 µM) | 32 (≈ 87.8 µM) | 16 (≈ 43.9 µM) | 0.5 (≈ 1.37 µM) | 128 (≈ 351 µM) | > 128 | 1 (≈ 2.74 µM) | 0.5 (≈ 1.37 µM) |  |  |  |  |  |  |  |
| CN(C)c1ccc(-c2c(-c3ccc(F)cc3)cc(C(=O)O)c(=O)n2C)cc1 [Example 52] | > 128 | > 128 | 4 (≈ 10.9 µM) |  | 64 (≈ 175 µM) | 2 (≈ 5.46 µM) |  | > 128 | 2 (≈ 5.46 µM) | 2 (≈ 5.46 µM) | > 128 |  |  |  |  | > 128 |  |
